One test has as its system new porcine skin. Kind of test: Elasticity of healed wound. It is filed as in vivo. The conditions noted are these: day 21; for Elasticity, Mean / Elasticity, individual values: topical. On the procedure: Additional tests were performed including elasticity (Table 12); max force (Table 13); tensile strength (strain) (Table 14); energy peak (Table 15); rete-ridge formation; and collagen organization (plane polarized light) (FIG. 24) of the healed wound sites, described as follows.
A is saline (control), B is serum formulation (vehicle), C is GO-HA (vehicle), D is Compound 1; E is Compound 1+GO-HA; F is Compound 8; G is Compound 8+GO-HA; H is Compound 10; and J is Compound 10+GO-HA.
Elasticity (N/mm) is the ability of a material to return to its original shape after stress has been removed. All compounds of Formula (I) tested with or without GO-HA ranged from 33% to 99% improvement in elasticity compared to the saline control.

Test [1] deals with HEK293 SuperTOPFlash reporter cells, Wnt promoter. Kind of test: HEK CELL Wnt Assay (luciferase reporter). It is filed as cell-based. To be noted: serial dilutions, with or without 50 ng/mL Wnt3a; 18 h. An outline of the steps:
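Reporter cells were seeded 24 h before dosing with serial dilutions ([…] to 1 nM), with or without 50 ng/mL Wnt3a, and incubated 18 h. Untreated cells served as negative control, with luciferase as read-out.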
In general terms: In a reporter assay the amount or activity of a reporter protein is the signal.

The test system of the next test is bacteria. Kind of test: Bacteriostasis: growth inhibition over the panel of bacteria. To be noted: 72 h. It is filed as cell-based. On the procedure: In order to assess the log reduction capabilities of compounds of Formula (1), testing was performed on organisms that are found in acute and chronic wounds. Triplicate tubes were prepared for each bacteria using 50 μL of inoculum (about 1×10^6 CFU/mL) which was added to 450 μL of compound solution (compound of Formula (I)) (or 100 μL of inoculum in 900 μL of compound solution), resulting in a final inoculum of about 1×10^5 CFU/mL, as shown in Table 4.
Tubes were mixed with a vortex and then incubated in a shaking incubator at 175 RPM and 35° C. to 37° C.
For Compounds 1, 7, 8, 10, and 18 in Tables 6, 7-A, 7-B, 8, 9, 10-A, 10-B, and 11: The compound solutions were prepared with compound (30 mg), polysorbate 20 (1.6 mL), butylene glycol (1.6 mL), phosphatidyl choline (0.66 g), ethanol (1.6 mL), hydroxypropyl cellulose (0.26 g), and ultra pure water (24.9 mL).
Testing was performed at two time points: 18 to 24 hours, and […].

The term pIC50 denotes the negative decadic logarithm of the IC50, by convention in mol/L. Read a low pIC50 as a large IC50.

SMILES strings stand for the structures. pIC50: −log10 of the molar value. Where “and” joins values, the source holds several entries; their conditions need not be identical. Identical values can stand only once.

As for `O=c1[nH]c(-c2ccc(B(O)O)cc2)nc2c1CSCC2` [Compound 1, (4-(4-oxo-3,5,7,8-tetrahydro-4H-thiopyrano[4,3-d]pyrimidin-2-yl)phenyl)boronic acid], in the test with new porcine skin, the “Elasticity, Mean” value is recorded as 37.628 N/mm; the “Elasticity, individual values” is 39.593 N/mm and 27.299 N/mm and 33.002 N/mm and 50.617 N/mm. The same compound had a pIC50 in test [1] of 5.70. The “number of bacteria with inhibited growth” value in the test with bacteria (test 1) was 6 of 7. Also, in the test on bacteria (test 2), the “number of bacteria with inhibited growth” value is 7 of 7.

The compound `O=c1[nH]c(-c2ccc(-c3ccc(Br)nc3)cc2)nc2c1CSCC2` [Compound 7, 2-(4-(6-bromopyridin-3-yl)phenyl)-3,5,7,8-tetrahydro-4H-thiopyrano [4,3-d]pyrimidin-4-one] gave a pIC50 in test [1] of 7.77. The “number of bacteria with inhibited growth” value in the test on bacteria is on record as 4 of 7.

For the compound `CC(C)(OCCO)c1ccc(-c2nc3c(c(=O)[nH]2)CSCC3)cc1` [Compound 8, 2-(4-(2-(2-hydroxyethoxy)propan-2-yl)phenyl)-3,5,7,8-tetrahydro-4H-thiopyrano[4,3-d]pyrimidin-4-one], in the test on new porcine skin, the “Elasticity, Mean” value amounted to 40.080 N/mm; the “Elasticity, individual values” is 47.748 N/mm and 22.23 N/mm and 55.607 N/mm and 46.485 N/mm and 28.331 N/mm. In test [1], this compound gave a pIC50 of 8.36. The “number of bacteria with inhibited growth” value with bacteria was 5 of 7.

On to `O=c1[nH]c(-c2ccc(-c3ccc(B(O)O)cc3)cc2)nc2c1CSCC2` [Compound 10, (4′-(4-oxo-3,5,7,8-tetrahydro-4H-thiopyrano[4,3-d]pyrimidin-2-yl)-[1,1′-biphenyl]-4-yl)boronic acid], for which, in the test on new porcine skin, the “improvement in elasticity compared to the saline control” value came out at 91%; the “Elasticity, Mean” value came to 53.682 N/mm; the “Elasticity, individual values” was 43.004 N/mm and 52.568 N/mm and 74.191 N/mm and 44.962 N/mm. Also, the pIC50 in test [1] was 8.30. Besides, the “number of bacteria with inhibited growth” value with bacteria (test 1) is reported as 7 of 7. Also, the “number of bacteria with inhibited growth” value with bacteria (test 2) is on record as 7 of 7.

For the compound `COC(=O)NCCOC(C)(C)c1ccc(-c2nc3c(c(=O)[nH]2)CSCC3)cc1` [Compound 18, methyl (2-((2-(4-(4-oxo-3,5,7,8-tetrahydro-4H-thiopyrano[4,3-d]pyrimidin-2-yl)phenyl)propan-2-yl)oxy)ethyl)carbamate], the pIC50 in test [1] is 8.22. Besides, the “number of bacteria with inhibited growth” value in the test on bacteria (test 1) is listed as 14 of 15.

The values above are taken from patent publication US20260356860A1, “2-SUBSTITUTED 3,4A,5,7,8,8A-HEXAHYDRO-4H-THIOPYRANO[4,3-DJPYRIMIDIN-4-ONES FOR WOUND TREATMENT” (priority 2022, published 2026).
